Laboratory results as given in patent US10576056B2, “Compounds for treating cancer and methods of use thereof” (MCMASTER UNIVERSITY, priority 2015, dated 2020).
Where two headings read alike, the source gives them in different places.

Tests used:
Type in all cases: cell-based
MCF7 cells = experiment: MTT proliferation assay, MCF7 breast cancer cells; conditions: for IC50: Homo sapiens; for IC50 / effect on proliferation: MCF7 cells; for effect on proliferation of MCF7 cells: increasing concentrations, 24 and 48 hours, 10% charcoal-stripped phenol-free serum, dose dependent
Experimental: (§1) First, the role of THs on breast cancer cell proliferation was evaluated using escalating doses of tri-iodothyronine (T3) and thyroxine (T4). […] In particular, the compound of Formula (I) or compound of Formula (Ia) is dronedarone. Dronedarone was selected as it is an FDA approved anti-arrhythmic drug.
(§2) The effect of increasing concentrations of T3 and T4 on the proliferation of 3 breast cancer cell lines (MCF 7, MD-MB-231, BT-474) in 10% charcoal-stripped phenol-free serum was evaluated at 24 and 48 hours following standard MTT-assay protocols. Increasing doses of PTU and dronedarone were added to cells with 200 μM T3 or T4 to measure proliferation of MCF-7 and MD-MB-231 cells using MTT assays.

MD-MB-231 cells = experiment: MTT proliferation assay, MD-MB-231 breast cancer cells; conditions: for effect on proliferation of MD-MB-231 cells: increasing concentrations, 24 and 48 hours, 10% charcoal-stripped phenol-free serum, dose dependent
Experimental: as §1, §2

BT-474 cells = experiment: MTT proliferation assay, BT-474 breast cancer cells; conditions: increasing concentrations, 24 and 48 hours, 10% charcoal-stripped phenol-free serum, dose dependent
Experimental: as §1, §2

Structure (SMILES): CCCc1cc(=O)[nH]c(=S)[nH]1 [PTU, propylthiouracil]
- IC50 (MCF7 cells; in the presence of T3 (FIG. 10), read-out: IC50 (proliferation)): 12 µM
- IC50 (MCF7 cells; in the presence of T4 (FIG. 10), read-out: concentration reducing proliferation by 50%): ~5 µM
- IC50 (MD-MB-231 cells; Homo sapiens, PTU alone, without T3/T4 (FIG. 11: MDA-MB-231 cells, 24 hours), read-out: concentration reducing cell proliferation by 50%): > 12 µM
- IC50 (MD-MB-231 cells; MD-MB-231 cells, in the presence of T3 (FIG. 10), read-out: IC50 (proliferation)): 12 µM
- IC50 (MD-MB-231 cells; MD-MB-231 cells, in the presence of T4 (FIG. 10), read-out: concentration reducing proliferation by 50%): ~5 µM

Structure (SMILES): N[C@@H](Cc1cc(I)c(Oc2ccc(O)c(I)c2)c(I)c1)C(=O)O [T3, tri-iodothyronine]
- effect on proliferation of MCF7 cells (MCF7 cells): statistically significant increase
- effect on proliferation of BT-474 cells (BT-474 cells): statistically significant increase
- effect on proliferation of MD-MB-231 cells (MD-MB-231 cells): statistically significant increase

Structure (SMILES): N[C@@H](Cc1cc(I)c(Oc2cc(I)c(O)c(I)c2)c(I)c1)C(=O)O [T4, thyroxine]
- effect on proliferation of MCF7 cells (MCF7 cells): statistically significant increase
- effect on proliferation of BT-474 cells (BT-474 cells): statistically significant increase
- effect on proliferation of MD-MB-231 cells (MD-MB-231 cells): statistically significant increase

Structure (SMILES): CCCCc1oc2ccc(NS(C)(=O)=O)cc2c1C(=O)c1ccc(OCCCN(CCCC)CCCC)cc1 [dronedarone]
- effect on proliferation (MCF7 cells; 10 μM dronedarone in combination with T3): significantly reduced proliferation
- effect on proliferation (MCF7 cells; 10 μM dronedarone in combination with T4): significantly reduced proliferation
- effect on proliferation (MD-MB-231 cells; MD-MB-231 cells, 10 μM dronedarone in combination with T3): significantly reduced proliferation
- effect on proliferation (MD-MB-231 cells; MD-MB-231 cells, 10 μM dronedarone in combination with T4): significantly reduced proliferation
- effect on cell proliferation (MD-MB-231 cells; dronedarone alone, without T3/T4 (FIG. 13: MDA-MB-231 cells, 24 hours)): not affected
